Results on 7 molecules are retold here after PubChem BioAssay (NCI).

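1) Cells in 96-well plates. 2) Compound, 48 h, 5 concentrations. 3) Linear interpolation between surrounding doses. 4) Unreached endpoint = highest concentration. At the GI50, growth is halved. TGI is the concentration that stops growth completely.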

Among the test systems are A549 NSCLC; HT29 colon; MDA-MB-435; NCI-H23 lung; RPMI-8226 leukemia; SF-295 CNS; SN12C renal; SNB-75 CNS; SR leukemia; TK-10 renal.
Common to all, as to test: NCI tumour cell line growth inhibition, 48 h

`O=C(Nc1ccc(I)cc1)c1cc([N+](=O)[O-])ccc1O`: the GI50 in the test with A549 NSCLC was 11.6 µM; in the test with HT29 colon, 13.3 µM; in the test on MDA-MB-435 it was 6.91 µM; in the test with NCI-H23 lung it was 4.07 µM; with RPMI-8226 leukemia, 2.65 µM; in the test on SF-295 CNS, 4.02 µM. Besides, the GI50 is 4.61 µM with SN12C renal, 8.89 µM in the test on SNB-75 CNS, 6.09 µM in the test on SR leukemia and 9.9 µM in the test with TK-10 renal. Further, the TGI in the test on A549 NSCLC was > 100 µM; in the test on HT29 colon, 89.7 µM; with MDA-MB-435, > 100 µM; with NCI-H23 lung, > 100 µM; in the test on RPMI-8226 leukemia it was 8.78 µM; with SF-295 CNS, 39.8 µM. Moreover, the TGI in the test with SN12C renal was 75.4 µM; in the test with SNB-75 CNS, 67 µM; with SR leukemia, 46.5 µM; in the test with TK-10 renal, > 100 µM.
In the case of `CCOC(=O)Nc1nc2ccc(OCC)cc2s1`, the GI50 in the test on A549 NSCLC was 7.2 µM; in the test with HT29 colon, 3.98 µM; in the test on MDA-MB-435, 0.773 µM; in the test on NCI-H23 lung, > 100 µM; with RPMI-8226 leukemia, 27.1 µM; in the test on SF-295 CNS, > 100 µM. Further, the GI50 with SN12C renal was > 93.4 µM; in the test with SNB-75 CNS, 22.7 µM; in the test with SR leukemia, 1.12 µM; with TK-10 renal, > 100 µM. Further, the TGI with A549 NSCLC is > 100 µM; in the test on HT29 colon, > 100 µM; in the test on MDA-MB-435 it was 3.71 µM; in the test on NCI-H23 lung, > 100 µM; in the test on RPMI-8226 leukemia, > 100 µM; with SF-295 CNS, > 100 µM. For the same molecule, the TGI with SN12C renal, in the test on SNB-75 CNS, in the test on SR leukemia and in the test with TK-10 renal was > 100 µM each time.
On to `CN(C)c1ccc(-c2cc(-c3ccc(Nc4nc(Nc5ccc(Cl)cc5)nc(Nc5ccc(Cl)cc5)n4)cc3)no2)cc1`, for which the GI50 in the test with A549 NSCLC is 5.12 µM; in the test on HT29 colon, 5.08 µM; in the test on MDA-MB-435 it was 3.33 µM; in the test with NCI-H23 lung, 6.41 µM; in the test on RPMI-8226 leukemia, 2.6 µM; in the test on SF-295 CNS it was 6.36 µM. For the same molecule, the GI50 in the test on SN12C renal was 9.63 µM; with SNB-75 CNS, 5.12 µM; in the test on TK-10 renal it was 16.3 µM. For the same molecule, the TGI with A549 NSCLC came out at 27.5 µM; with HT29 colon, 66.5 µM; with MDA-MB-435 it was 32.3 µM; in the test on NCI-H23 lung it was 35.8 µM; in the test on RPMI-8226 leukemia it was 17 µM; in the test on SF-295 CNS, 43.8 µM. In addition, the TGI was 61 µM in the test with SN12C renal, 28.1 µM in the test with SNB-75 CNS, 1.74 µM in the test on SR leukemia and > 100 µM in the test on TK-10 renal.
Consider `CNC(=O)c1ccccc1Nc1nc(Nc2ccc(N3CCOCC3)cc2OC)ncc1Cl`, for which the GI50 with A549 NSCLC was 0.344 µM; with HT29 colon, 0.0714 µM; in the test with MDA-MB-435, 0.629 µM; with NCI-H23 lung, 0.571 µM; in the test on RPMI-8226 leukemia, 2.02 µM; with SF-295 CNS, 0.503 µM. The GI50 in the test with SN12C renal was 1.77 µM; in the test on SNB-75 CNS, 0.766 µM; with SR leukemia, 0.0251 µM; in the test with TK-10 renal, 0.197 µM. Also, the TGI in the test on A549 NSCLC was > 20.4 µM; in the test with HT29 colon, 4.73 µM; with MDA-MB-435 it was > 66.4 µM; in the test on NCI-H23 lung it was > 43.8 µM; with RPMI-8226 leukemia, > 48.5 µM; with SF-295 CNS, 11.1 µM. The TGI with SN12C renal is > 100 µM; with SNB-75 CNS it was 5.44 µM; in the test on SR leukemia, 3.25 µM; in the test on TK-10 renal it was 2.01 µM.
`Fc1ccc(Nc2ncnc3ccc(-c4cnc5[nH]ccc5c4)cc23)cc1Cl`: the GI50 in the test with A549 NSCLC was 1.79 µM; with HT29 colon, 2.05 µM; in the test on MDA-MB-435, 8.66 µM; in the test on NCI-H23 lung, 8.74 µM; in the test on RPMI-8226 leukemia, 3.09 µM; in the test on SF-295 CNS, 2.73 µM. Also, the GI50 is 1.73 µM in the test on SN12C renal, 1.23 µM in the test on SNB-75 CNS, 2.68 µM in the test with SR leukemia and 0.292 µM in the test on TK-10 renal. Moreover, the TGI is 5.33 µM with A549 NSCLC; > 25.1 µM in the test with HT29 colon; > 80.1 µM in the test on MDA-MB-435; > 100 µM with NCI-H23 lung; > 100 µM with RPMI-8226 leukemia; 11.2 µM in the test on SF-295 CNS. Moreover, the TGI in the test on SN12C renal is 4.88 µM; with SNB-75 CNS, 3.42 µM; with SR leukemia, > 100 µM; with TK-10 renal, 13.8 µM.
As for `CCc1ccc2c(c1)C(=O)c1c-2n(CCCBr)c(=O)c2cc([N+](=O)[O-])ccc12`, the GI50 was > 50 µM in the test with A549 NSCLC; > 50 µM in the test with HT29 colon; > 50 µM in the test on MDA-MB-435; > 50 µM in the test on NCI-H23 lung; > 50 µM in the test on RPMI-8226 leukemia; 36.5 µM in the test on SF-295 CNS. In addition, the GI50 with SN12C renal is > 50 µM; in the test on SNB-75 CNS, 7.88 µM; in the test with SR leukemia, 19.1 µM; with TK-10 renal, 15 µM. In addition, the TGI with A549 NSCLC, with HT29 colon, in the test with MDA-MB-435, in the test with NCI-H23 lung, in the test on RPMI-8226 leukemia and in the test with SF-295 CNS was > 50 µM throughout. The TGI with SN12C renal is > 50 µM; in the test with SNB-75 CNS, 19.9 µM; in the test with SR leukemia it was > 50 µM; with TK-10 renal it was > 50 µM.
On to `Nc1cc2nc3ccccc3sc-2cc1=O`, for which the GI50 in the test with A549 NSCLC was 2.06 µM; with HT29 colon it was 2.92 µM; with MDA-MB-435 it was 1.76 µM; in the test with NCI-H23 lung, 1.54 µM; in the test with RPMI-8226 leukemia, 2.54 µM; in the test with SF-295 CNS, 2.44 µM. The GI50 in the test on SN12C renal is 1.72 µM; in the test with SNB-75 CNS, 2.59 µM; in the test on SR leukemia, 4.27 µM; in the test on TK-10 renal it was 5.72 µM. Besides, the TGI with A549 NSCLC came to 4.82 µM; in the test with HT29 colon, 6.86 µM; with MDA-MB-435 it was 3.26 µM; with NCI-H23 lung, 3.76 µM; in the test on RPMI-8226 leukemia, 26.4 µM; with SF-295 CNS, 7.35 µM. Besides, the TGI in the test with SN12C renal is 3.4 µM; with SNB-75 CNS it was 7.71 µM; in the test with SR leukemia, > 100 µM; in the test on TK-10 renal, 16.2 µM.
